12 compounds from patent US20170166598A1, “HETEROARYL COMPOUNDS FOR KINASE INHIBITION” (ARIAD PHARMACEUTICALS, INC., priority 2014, published 2017) can be followed below.

Some results are limits rather than exact numbers.

What all share (format): cell-based
Assay [1] has as its target T1, human EGFR exon 20 insertion NPG (H773_V774insNPG) (Homo sapiens, UniProt P00533, INS772GNP).
T1 construct: expressed in transfected cells; host or cells: Ba/F3 (murine pro-B) cells transduced with lentivirus from pLVX-IRES puro
The assay can be described thus: Ba/F3-EGFR-Exon20-NPG cell anti-proliferative assay (CellTiter 96 MTS, 72 h). Conditions: Ba/F3-EGFR-Exon20-NPG cells. The procedure:
An expression vector, pLVX-IRES puro (Clontech) coding for human EGFR exon 20 insertions NPG (H773_V774insNPG) or ASV (V769_D770insASV), was transfected into HEK293 cells by the Trans-Lentiviral ORF Packaging System (Thermo Scientific), to produce virus encoding EGFR exon 20 insertions. Ba/F3 (DSMZ) cells maintained in RPMI 1640 medium supplemented with 10% fetal bovine serum, 200 μM L-glutamine/l 200 μg/mL penicillin/200 μg/mL streptomycin (Life Technology) and 10 ng/mL IL-3 (R&D system), were infected by EGFR Exon20 virus and subsequently selected by puromycin (Life Technology) selection and IL-3 depletion. […] The anti-proliferative activity of compounds were determined as follows: BaF3-EGFR-Exon20 cells (NPG or ASV) seeded in 96 well plates (2500 cells/well) were treated with test compound (dissolved in DMSO) at a series of concentrations (4-fold dilution, top concentration: 10,000 nM). The plates were incubated for 72 h in a 37° C. incubator with 5% CO2, and the number of viable cells in each well were measured indirectly by CellTiter 96® Aqueous One Solution Cell Proliferation Assay (Promega) This assay is a colorimetric method for determining the number of viable cells through measurement of their metabolic activity by detection of enzymatic conversion of tetrazolium salts into blue formazan derivatives. Reagent (20 μL) was added into each well, and the plates were returned to the incubator for 2 h. The absorbance in each well was then measured at 490 nm using an Envision plate reader (Perkin Elmer).

Assay [2] addresses T2, human EGFR E746-A750 deletion and T790M Mutation (Homo sapiens, UniProt P00533, DEL746-750/T790M).
T2 construct: expressed in transfected cells; host or cells: Ba/F3 (murine pro-B) cells transduced with lentivirus from pLVX-IRES puro
The assay can be described thus: Ba/F3-EGFR-Del/T790M cell anti-proliferative assay (CellTiter 96 MTS, 72 h). Conditions: Ba/F3-EGFR-Del/T790M cells. The procedure: An expression vector, pLVX-IRES puro (Clontech) coding for human EGFR E746-A750 deletion and T790M Mutation, was transfected into HEK293 cells by the Trans-Lentiviral ORF Packaging System (Thermo Scientific), to produce virus encoding EGFR exon 19 deletion and T790M mutations. Ba/F3 (DSMZ) cells maintained in RPMI 1640 medium supplemented with 10% fetal bovine serum, 200 μM L-glutamine/200 μg/mL penicillin/200 μg/mL streptomycin (Life Technology) and 10 ng/mL IL-3 (R&D system), were infected by EGFR E746-A750 deletion and T790M Mutation virus and subsequently selected by puromycin (Life Technology) selection and IL-3 depletion. […] The anti-proliferative activity of compounds was determined as follows: BaF3-EGFR-Del/T790M cells seeded in 96 well plates (2500 cells/well) were treated with test compound (dissolved in DMSO) at a series of concentrations (4-fold dilution, top concentration: 10,000 nM). The plates were incubated for 72 h in a 37° C. incubator with 5% CO2, and the number of viable cells in each well were measured indirectly by CellTiter 96® Aqueous One Solution Cell Proliferation Assay (Promega; this assay is a colorimetric method for determining the number of viable cells through measurement of their metabolic activity by detection of enzymatic conversion of tetrazolium salts into blue formazan derivatives). Reagent (20 μL) was added into each well, and the plates were returned to the incubator for 2 h. The absorbance in each well was then measured at 490 nm using an Envision plate reader (Perkin Elmer).

The target in assay [3] is T3, Her2 exon 20 YVMA insertion (A775_G776ins YVMA) (Homo sapiens, UniProt P04626, INS775YVMA).
T3 construct: expressed in transfected cells; host or cells: Ba/F3 (murine pro-B) cells transduced with lentivirus from pLVX-IRES puro
T3 sequence (P04626 with tags, fused parts or gaps INS775YVMA): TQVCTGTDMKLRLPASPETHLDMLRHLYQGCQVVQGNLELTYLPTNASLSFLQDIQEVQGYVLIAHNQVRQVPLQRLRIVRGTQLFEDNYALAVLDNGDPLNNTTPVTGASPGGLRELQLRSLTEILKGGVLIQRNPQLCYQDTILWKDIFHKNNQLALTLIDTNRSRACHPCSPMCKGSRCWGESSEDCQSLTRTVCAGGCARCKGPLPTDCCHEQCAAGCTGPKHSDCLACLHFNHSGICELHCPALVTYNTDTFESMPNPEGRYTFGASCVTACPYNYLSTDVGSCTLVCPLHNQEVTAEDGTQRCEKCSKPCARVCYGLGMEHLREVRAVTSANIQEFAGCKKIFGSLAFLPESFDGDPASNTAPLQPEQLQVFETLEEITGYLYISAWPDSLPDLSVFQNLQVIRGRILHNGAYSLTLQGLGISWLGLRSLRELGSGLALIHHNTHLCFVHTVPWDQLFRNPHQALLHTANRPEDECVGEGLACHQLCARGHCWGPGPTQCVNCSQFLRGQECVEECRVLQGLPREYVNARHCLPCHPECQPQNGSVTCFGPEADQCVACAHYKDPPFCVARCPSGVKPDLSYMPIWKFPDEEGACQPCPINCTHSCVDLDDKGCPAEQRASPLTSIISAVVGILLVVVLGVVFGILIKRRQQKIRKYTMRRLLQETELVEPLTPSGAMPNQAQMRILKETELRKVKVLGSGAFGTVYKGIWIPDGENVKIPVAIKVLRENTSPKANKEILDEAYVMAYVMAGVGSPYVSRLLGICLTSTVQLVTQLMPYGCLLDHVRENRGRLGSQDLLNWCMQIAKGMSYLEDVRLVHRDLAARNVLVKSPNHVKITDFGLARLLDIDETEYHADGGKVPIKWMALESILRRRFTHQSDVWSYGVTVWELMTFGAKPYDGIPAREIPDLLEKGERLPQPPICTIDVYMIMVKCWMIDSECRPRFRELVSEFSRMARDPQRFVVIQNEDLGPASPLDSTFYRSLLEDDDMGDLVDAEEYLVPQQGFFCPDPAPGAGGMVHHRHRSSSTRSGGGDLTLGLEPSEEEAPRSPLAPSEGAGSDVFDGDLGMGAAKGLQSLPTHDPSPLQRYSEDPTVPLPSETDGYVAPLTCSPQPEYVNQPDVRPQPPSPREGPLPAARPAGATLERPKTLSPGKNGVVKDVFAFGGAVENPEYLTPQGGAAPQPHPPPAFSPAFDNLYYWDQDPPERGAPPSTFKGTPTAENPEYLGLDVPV
The assay can be described thus: Ba/F3-Her2 Exon20 YVMA cell anti-proliferative assay (CellTiter 96 MTS, 72 h). As to conditions: Ba/F3-Her2 Exon20 YVMA cells. The source says:
A compound's ability in selectively inhibiting Her2 exon 20 YVMA insertion mutations can be assessed using Ba/F3 cells, a murine pro-B cell line, which have been transduced with Her2 Exon20 YVMA insertions. An expression vector, pLVX-IRES puro (Clontech) coding for […] (A775_G776ins YVMA), was transfected into HEK293 cells by the Trans-Lentiviral ORF Packaging System (Thermo Scientific), to produce virus encoding EGFR exon 20 insertions. Ba/F3 (DSMZ) cells maintained in RPMI 1640 medium supplemented with 10% fetal bovine serum, 200 μM L-glutamine/200 μg/mL penicillin/200 μg/mL streptomycin (Life Technology) and 10 ng/mL IL-3 (R&D system), were infected by EGFR Exon20 virus and subsequently selected by puromycin (Life Technology) selection and IL-3 depletion. Ba/F3 cells expressing Her2 Exon20 YVMA insertions (named Ba/F3-Her2 Exon20 YVMA) can proliferate in the absence of IL-3. The anti-proliferative activity of compounds was determined as follows: BaF3-Her2 Exon20 YVMA cells seeded in 96 well plates (2500 cells/well) were treated with test compound (dissolved in DMSO) at a series of concentrations (4-fold dilution, top concentration: 10,000 nM). The plates were incubated for 72 h in a 37° C. incubator with 5% CO2, and the number of viable cells in each well were measured indirectly by CellTiter 96@ Aqueous One Solution Cell Proliferation Assay (Promega; this assay is a colorimetric method for determining the number of viable cells through measurement of their metabolic activity by detection of enzymatic conversion of tetrazolium salts into blue formazan derivatives). Reagent (20 μL) was added into each well, and the plates were returned to the incubator for 2 h. The absorbance in each well was then measured at 490 nm using an Envision plate reader (Perkin Elmer).

T1 sequence (P00533 with tags, fused parts or gaps INS772GNP): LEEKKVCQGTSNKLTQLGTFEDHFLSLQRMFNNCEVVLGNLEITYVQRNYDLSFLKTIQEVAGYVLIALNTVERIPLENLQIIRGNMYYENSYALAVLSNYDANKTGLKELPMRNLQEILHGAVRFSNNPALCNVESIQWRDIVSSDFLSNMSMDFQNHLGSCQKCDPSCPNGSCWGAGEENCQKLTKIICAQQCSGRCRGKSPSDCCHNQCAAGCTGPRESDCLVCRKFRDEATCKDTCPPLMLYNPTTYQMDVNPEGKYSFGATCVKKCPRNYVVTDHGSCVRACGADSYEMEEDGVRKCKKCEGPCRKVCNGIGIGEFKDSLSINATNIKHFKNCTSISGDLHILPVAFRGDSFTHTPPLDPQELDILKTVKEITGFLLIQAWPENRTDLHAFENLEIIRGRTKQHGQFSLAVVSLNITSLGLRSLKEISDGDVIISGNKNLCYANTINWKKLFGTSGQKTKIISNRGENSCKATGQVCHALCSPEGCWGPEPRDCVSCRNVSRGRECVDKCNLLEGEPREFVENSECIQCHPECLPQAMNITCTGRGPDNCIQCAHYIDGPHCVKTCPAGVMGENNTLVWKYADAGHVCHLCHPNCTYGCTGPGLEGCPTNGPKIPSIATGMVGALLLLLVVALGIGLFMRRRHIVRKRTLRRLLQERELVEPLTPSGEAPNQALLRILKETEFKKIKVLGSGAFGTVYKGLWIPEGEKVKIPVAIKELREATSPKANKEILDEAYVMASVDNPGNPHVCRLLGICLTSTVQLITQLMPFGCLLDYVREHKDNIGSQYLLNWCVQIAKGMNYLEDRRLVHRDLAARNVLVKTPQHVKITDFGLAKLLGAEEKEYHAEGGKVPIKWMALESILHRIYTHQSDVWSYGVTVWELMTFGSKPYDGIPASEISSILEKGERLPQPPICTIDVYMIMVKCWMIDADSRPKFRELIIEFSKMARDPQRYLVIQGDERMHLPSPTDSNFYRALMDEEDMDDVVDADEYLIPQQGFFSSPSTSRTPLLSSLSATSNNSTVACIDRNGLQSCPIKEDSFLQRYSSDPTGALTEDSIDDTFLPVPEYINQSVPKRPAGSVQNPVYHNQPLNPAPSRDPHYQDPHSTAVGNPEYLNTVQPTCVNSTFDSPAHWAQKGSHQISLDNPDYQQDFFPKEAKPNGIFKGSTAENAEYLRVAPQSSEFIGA
T2 sequence (P00533 with tags, fused parts or gaps DEL746-750/T790M): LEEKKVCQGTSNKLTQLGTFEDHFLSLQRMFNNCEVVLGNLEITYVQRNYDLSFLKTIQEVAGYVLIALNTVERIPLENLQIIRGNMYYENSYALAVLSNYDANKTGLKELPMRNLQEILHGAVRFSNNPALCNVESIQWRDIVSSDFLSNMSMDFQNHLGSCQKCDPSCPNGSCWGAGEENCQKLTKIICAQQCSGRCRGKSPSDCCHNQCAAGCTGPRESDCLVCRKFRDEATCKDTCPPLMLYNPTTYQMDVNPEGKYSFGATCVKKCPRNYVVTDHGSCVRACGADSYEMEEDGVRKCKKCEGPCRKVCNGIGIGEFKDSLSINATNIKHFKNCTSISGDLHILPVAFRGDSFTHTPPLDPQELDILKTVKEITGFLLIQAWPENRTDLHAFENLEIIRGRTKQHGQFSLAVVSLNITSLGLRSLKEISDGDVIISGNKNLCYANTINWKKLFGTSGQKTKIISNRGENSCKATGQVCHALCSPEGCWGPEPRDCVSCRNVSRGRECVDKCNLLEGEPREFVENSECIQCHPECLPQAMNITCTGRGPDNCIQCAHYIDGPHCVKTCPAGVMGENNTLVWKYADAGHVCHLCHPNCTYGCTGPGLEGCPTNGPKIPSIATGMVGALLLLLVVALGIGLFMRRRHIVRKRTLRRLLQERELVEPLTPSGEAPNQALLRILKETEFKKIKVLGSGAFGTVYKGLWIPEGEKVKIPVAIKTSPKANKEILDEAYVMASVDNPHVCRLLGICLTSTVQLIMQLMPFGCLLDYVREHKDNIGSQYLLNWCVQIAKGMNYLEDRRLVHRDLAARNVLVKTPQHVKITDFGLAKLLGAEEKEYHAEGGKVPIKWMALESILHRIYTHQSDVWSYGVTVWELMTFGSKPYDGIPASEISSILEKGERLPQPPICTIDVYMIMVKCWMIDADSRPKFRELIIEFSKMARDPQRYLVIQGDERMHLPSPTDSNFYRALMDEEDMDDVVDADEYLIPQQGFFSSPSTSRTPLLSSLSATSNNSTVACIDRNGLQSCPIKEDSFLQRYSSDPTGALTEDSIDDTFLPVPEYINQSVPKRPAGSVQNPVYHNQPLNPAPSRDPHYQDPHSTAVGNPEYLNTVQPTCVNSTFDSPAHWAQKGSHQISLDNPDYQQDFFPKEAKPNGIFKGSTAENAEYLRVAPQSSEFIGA

For orientation: IC50 means the point on the concentration scale where inhibition reaches its midpoint. A low value points to greater potency. In the case of `C=CC(=O)Nc1cc(Nc2ncc(Cl)c(-c3cn4c5c(cccc35)CCC4)n2)c(OC)cc1OCCN1CCOCC1` [Example 22, N-(5-((5-chloro-4-(5,6-dihydro-4H-pyrrolo[3,2,1-ij]quinolin-1-yl)pyrimidin-2-yl)amino)-4-methoxy-2-(2-morpholinoethoxy)phenyl)acrylamide], the IC50 in assay [1] is 100 to 500 nM; in assay [3] it was above 1000 nM. In addition, the “EGFR exon 19 deletion and exon 20 T790M mutation IC50” value in assay [2] is on record as “A (IC50 value for the indicated mutant below about 100 nM)”.

For the compound `C=CC(=O)Nc1cc(Nc2ncc(Cl)c(-c3cn4c5c(cccc35)CCC4)n2)c(OC)cc1OCCN1CCCC1` [Example 20], the IC50 was 100 to 500 nM in assay [1] and 500 to 1000 nM in assay [3]. In addition, the “EGFR exon 19 deletion and exon 20 T790M mutation IC50” value in assay [2] is “A (IC50 value for the indicated mutant below about 100 nM)”.

Take `C=CC(=O)Nc1cc(Nc2ncc(C(C)C)c(-c3cn4c5c(cccc35)CCC4)n2)c(OC)cc1N(C)CCN(C)C` [Example 30, N-(5-((4-(5,6-dihydro-4H-pyrrolo[3,2,1-ij]quinolin-1-yl)-5-isopropylpyrimidin-2-yl)amino)-2-((2-(dimethylamino)ethyl)(methyl)amino)-4-methoxyphenyl)acrylamide]: the half-maximal inhibitory concentration (IC50) in assay [1] lay within 100 to 500 nM; in assay [3], 500 to 1000 nM. The “EGFR exon 19 deletion and exon 20 T790M mutation IC50” value in assay [2] is “A (IC50 value for the indicated mutant below about 100 nM)”.

As to `C=CC(=O)Nc1cc(Nc2ncc(Cl)c(-c3cn4c5c(cccc35)CCC4)n2)c(OC)cc1OCCN1CCN(C)CC1` [Example 21, N-(5-((5-chloro-4-(5,6-dihydro-4H-pyrrolo[3,2,1-ij]quinolin-1-yl)pyrimidin-2-yl)amino)-4-methoxy-2-(2-(4-methylpiperazin-1-yl)ethoxy)phenyl)acrylamide], the IC50 was 100 to 500 nM in assay [1] and above 1000 nM in assay [3]. In addition, the “EGFR exon 19 deletion and exon 20 T790M mutation IC50” value in assay [2] is reported as “A (IC50 value for the indicated mutant below about 100 nM)”.

Consider `C=CC(=O)Nc1cc(Nc2ncc(CC)c(-c3cn4c5c(cccc35)CCC4)n2)c(OC)cc1N1CCN(C(C)=O)CC1` [Example 3, N-(2-(4-acetylpiperazin-1-yl)-5-((4-(5,6-dihydro-4H-pyrrolo[3,2,1-ij]quinolin-1-yl)-5-ethylpyrimidin-2-yl)amino)-4-methoxyphenyl)acrylamide], for which the IC50 in assay [1] and in assay [3] was above 1000 nM throughout. Also, the “EGFR exon 19 deletion and exon 20 T790M mutation IC50” value in assay [2] is listed as “B (IC50 value for the indicated mutant between about 100 to about 500 nM)”.

In the case of `C=CC(=O)Nc1cc(Nc2ncc(Cl)c(-c3cn4c5c(cccc35)OCC4)n2)c(C)cc1N(C)CCN1CCCC1` [Example 79, N-(5-((5-chloro-4-(2,3-dihydro-[1,4]oxazino[2,3,4-hi]indol-6-yl)pyrimidin-2-yl)amino)-4-methyl-2-(methyl(2-(pyrrolidin-1-yl)ethyl)amino)phenyl)acrylamide], the 50% inhibitory concentration (IC50) is below 100 nM in assay [1] and 100 to 500 nM in assay [3]. The “EGFR exon 19 deletion and exon 20 T790M mutation IC50” value in assay [2] is listed as “A (IC50 value for the indicated mutant below about 100 nM)”.

With `C=CC(=O)Nc1cc(Nc2ncc(C(=C)C)c(-c3cn4c5c(cccc35)CCC4)n2)c(OC)cc1N(C)CCN(C)C` [Example 29, N-(5-((4-(5,6-dihydro-4H-pyrrolo[3,2,1-ij]quinolin-1-yl)-5-(prop-1-en-2-yl)pyrimidin-2-yl)amino)-2-((2-(dimethylamino)ethyl)(methyl)amino)-4-methoxyphenyl)acrylamide], the IC50 in assay [1] and in assay [3] was below 100 nM each time. The “EGFR exon 19 deletion and exon 20 T790M mutation IC50” value in assay [2] was “A (IC50 value for the indicated mutant below about 100 nM)”.

As for `C=CC(=O)Nc1cc(Nc2ncc(Cl)c(-c3cn4c5c(cccc35)CCC4)n2)c(C)cc1N(C)CCN(C)C` [Example 13, N-(5-((5-chloro-4-(5,6-dihydro-4H-pyrrolo[3,2,1-ij]quinolin-1-yl)pyrimidin-2-yl)amino)-2-((2-(dimethylamino)ethyl)(methyl)amino)-4-methylphenyl)acrylamide], the values for the half-inhibitory concentration (IC50) in assay [1] and in assay [3] were below 100 nM and 100 to 500 nM, respectively. In addition, in assay [2], the “EGFR exon 19 deletion and exon 20 T790M mutation IC50” value is recorded as “A (IC50 value for the indicated mutant below about 100 nM)”.

For `C=CC(=O)Nc1cc(Nc2ncc(C3CC3)c(-c3cn4c5c(cccc35)CCC4)n2)c(OC)cc1N(C)CCN(C)C` [Example 28, N-(5-((5-cyclopropyl-4-(5,6-dihydro-4H-pyrrolo[3,2,1-ij]quinolin-1-yl)pyrimidin-2-yl)amino)-2-((2-(dimethylamino)ethyl)(methyl)amino)-4-methoxyphenyl)acrylamide], the IC50 in assay [1] was below 100 nM; in assay [3], 500 to 1000 nM. Also, the “EGFR exon 19 deletion and exon 20 T790M mutation IC50” value in assay [2] is “A (IC50 value for the indicated mutant below about 100 nM)”.

As to `C=CC(=O)Nc1cc(Nc2ncc(Cl)c(-c3cn4c5c(cccc35)CCC4)n2)c(OC)cc1N(C)CCN1CCN(C)CC1` [Example 25, N-(5-((5-chloro-4-(5,6-dihydro-4H-pyrrolo[3,2,1-ij]quinolin-1-yl)pyrimidin-2-yl)amino)-4-methoxy-2-(methyl(2-(4-methylpiperazin-1-yl)ethyl)amino)phenyl)acrylamide], the values for the IC50 in assay [1] and in assay [3] were 100 to 500 nM and above 1000 nM, respectively. Also, the “EGFR exon 19 deletion and exon 20 T790M mutation IC50” value in assay [2] is reported as “A (IC50 value for the indicated mutant below about 100 nM)”.

Regarding `C=CC(=O)Nc1cc(Nc2ncc(Cl)c(-c3cn4c5c(cccc35)OCC4)n2)c(C)cc1OCCN1CCCC1` [Example 78, N-(5-((5-chloro-4-(2,3-dihydro-[1,4]oxazino[2,3,4-hi]indol-6-yl)pyrimidin-2-yl)amino)-4-methyl-2-(2-(pyrrolidin-1-yl)ethoxy)phenyl)acrylamide], the 50% inhibitory concentration (IC50) in assay [1] is below 100 nM; in assay [3], 100 to 500 nM. Besides, in assay [2], the “EGFR exon 19 deletion and exon 20 T790M mutation IC50” value is “A (IC50 value for the indicated mutant below about 100 nM)”.

With `C=CC(=O)Nc1cc(Nc2nccc(-c3cn4c5c(cccc35)OCC4)n2)c(OC)cc1N(C)CCN(C)C` [Example 77, N-(5-((4-(2,3-dihydro-[1,4]oxazino[2,3,4-hi]indol-6-yl)pyrimidin-2-yl)amino)-2-((2-(dimethylamino)ethyl)(methyl)amino)-4-methoxyphenyl)acrylamide], in assay [3], the IC50 was 100 to 500 nM.
